Experimental data as given in patent US20170334899A1, “AMINO-SUBSTITUTED ISOTHIAZOLES” (Bayer Pharma Aktiengesellschaft, priority 2014, published 2017).

These molecules were tested against T1, catalytic domain of human Bub1 (amino acids 704-1085) (Homo sapiens, UniProt O43683) (assay: Bub1 kinase assay (TR-FRET)). Conditions: 10 μM ATP, avg, read-out: Bub1 avg (IC50 [mol/l]).
T1 construct: catalytic domain of human Bub1 (amino acids 704-1085); His6 (N); made in house; host or cells: insect cells (Hi5)
T1 sequence (O43683 704-1085): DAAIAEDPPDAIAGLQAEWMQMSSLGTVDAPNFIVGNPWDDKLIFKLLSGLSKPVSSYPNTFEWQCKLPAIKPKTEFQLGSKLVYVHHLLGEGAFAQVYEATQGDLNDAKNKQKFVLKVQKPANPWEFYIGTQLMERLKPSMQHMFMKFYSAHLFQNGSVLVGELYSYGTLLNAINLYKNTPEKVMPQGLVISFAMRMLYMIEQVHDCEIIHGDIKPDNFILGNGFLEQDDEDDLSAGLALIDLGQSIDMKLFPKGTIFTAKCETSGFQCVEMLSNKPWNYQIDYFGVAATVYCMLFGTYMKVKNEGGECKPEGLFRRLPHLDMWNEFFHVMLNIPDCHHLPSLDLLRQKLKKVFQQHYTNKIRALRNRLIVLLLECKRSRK
Format: biochemical
In short: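 Readout is the 665/620 nm TR-FRET ratio from anti-phosphoserine antibody, Eu-labelled anti-mouse IgG and streptavidin-XL665, scaled between no-enzyme and uninhibited controls. Reaction: 1 μM biotinylated peptide, 10 μM ATP, 60 min, 22 °C, after 15 min compound preincubation with His6-Bub1 (704-1085, insect-expressed, ~200 ng/ml).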

IC50 [µM] | SMILES
> 20 | Cc1nsc(Nc2cnc(C(F)(F)F)cn2)c1C(=O)Nc1ccc(F)c(OC[C@H]2CCCN(CC(F)(F)F)C2)c1 [Example 419, N-(4-Fluoro-3-{[(3S)-1-(2,2,2-trifluoroethyl)piperidin-3-yl]methoxy}phenyl)-3-methyl-5-{[5-(trifluoromethyl)pyrazin-2-yl]amino}-1,2-thiazole-4-carboxamide]
≥ 20 | Cc1nsc(Nc2cnc(C(F)(F)F)cn2)c1C(=O)Nc1ccc(CCC2CCN(CCC(F)(F)F)CC2)nc1 [Example 420, 3-Methyl-5-{[5-(trifluoromethyl)pyrazin-2-yl]amino}-N-(6-{2-[1-(3,3,3-trifluoro-propyl)piperidin-4-yl]ethyl}pyridin-3-yl)-1,2-thiazole-4-carboxamide]
> 20 | CCN1CC[C@H](Oc2ccc(NC(=O)c3c(C)nsc3Nc3cnc(C(F)(F)F)cn3)cn2)[C@H](F)C1 [Example 424, N-(6-{[(3R,4S)-1-Ethyl-3-fluoropiperidin-4-yl]oxy}pyridin-3-yl)-3-methyl-5-{[5-(trifluoromethyl)pyrazin-2-yl]amino}-1,2-thiazole-4-carboxamide]
≥ 20 | Cc1nsc(Nc2cnc(C(F)(F)F)cn2)c1C(=O)Nc1ccc(OCCNC(=O)C(F)(F)F)nc1 [Example 425, 3-Methyl-N-(6-{2-[(trifluoroacetyl)amino]ethoxy}pyridin-3-yl)-5-{[5-(trifluoro-methyl)pyrazin-2-yl]amino}-1,2-thiazole-4-carboxamide]
≥ 20 | Cc1nsc(Nc2cnc(C(F)(F)F)cn2)c1C(=O)Nc1ccc(F)c(OCCCNC(=O)C(F)(F)F)c1 [Example 427, N-(4-Fluoro-3-{3-[(trifluoroacetyl)amino]propoxy}phenyl)-3-methyl-5-{[5-(trifluoro-methyl)pyrazin-2-yl]amino}-1,2-thiazole-4-carboxamide]
> 20 | Cc1nsc(Nc2cnc(C(F)(F)F)cn2)c1C(=O)Nc1ccc(OCCCNC(=O)C(F)(F)F)nc1 [Example 428, 3-Methyl-N-(6-{3-[(trifluoroacetyl)amino]propoxy}pyridin-3-yl)-5-{[5-(trifluoro-methyl)pyrazin-2-yl]amino}-1,2-thiazole-4-carboxamide]
> 20 | Cc1nsc(Nc2cnc(C(F)(F)F)cn2)c1C(=O)Nc1ccc(OCCN(C)C(=O)OC(C)(C)C)nc1 [Example 429, tert-Butyl methyl{2-[(5-{[(3-methyl-5-{[5-(trifluoromethyl)pyrazin-2-yl]amino}-1,2-thiazol-4-yl)carbonyl]amino}pyridin-2-yl)oxy]ethyl}carbannate]
> 20 | Cc1nsc(Nc2cncc(C(F)(F)F)n2)c1C(=O)Nc1ccc(OCCN(C)C(=O)OC(C)(C)C)nc1 [Example 430, tert-Butyl methyl{2-[(5-{[(3-methyl-5-{[6-(trifluoromethyl)pyrazin-2-yl]amino}-1,2-thiazol-4-yl)carbonyl]amino}pyridin-2-yl)oxy]ethyl}carbannate]
> 20 | Cc1nsc(Nc2cnc(C(F)(F)F)cn2)c1C(=O)Nc1ccc(OC2CCNCC2)c(F)c1 [Example 431, N-[3-Fluoro-4-(piperidin-4-yloxy)phenyl]-3-methyl-5-{[5-(trifluoromethyl)pyrazin-2-yl]amino}-1,2-thiazole-4-carboxamide]
> 20 | Cc1nsc(Nc2cnc3ccccc3n2)c1C(=O)Nc1cccc(NC(=O)C(F)(F)F)c1 [Example 432, 3-Methyl-5-(quinoxalin-2-ylamino)-N-{3-[(trifluoroacetyl)amino]phenyl}-1,2-thiazole-4-carboxamide]
> 20 | Cc1nsc(Nc2ccc(C#N)cn2)c1C(=O)Nc1ccc(Nc2ccc(F)c(F)c2)nc1 [Example 433, 5-[(5-Cyanopyridin-2-yl)amino]-N-{6-[(3,4-difluorophenyl)amino]pyridin-3-yl}-3-methyl-1,2-thiazole-4-carboxamide]
> 20 | Cc1nsc(Nc2cnc3ccccc3n2)c1C(=O)Nc1ccc(NCCN(C)C(=O)OC(C)(C)C)nc1 [Example 434, tert-Butyl methyl(2-{[5-({[3-methyl-5-(quinoxalin-2-ylamino)-1,2-thiazol-4-yl]carbonyl}amino)pyridin-2-yl]amino}ethyl)carbamate]
> 20 | CC(=O)Nc1ccc(NC(=O)c2c(C)nsc2Nc2ccc(C#N)cn2)cn1 [Example 435, N-(6-Acetamidopyridin-3-yl)-5-[(5-cyanopyridin-2-yl)amino]-3-methyl-1,2-thiazole-4-carboxamide]
